Data as given in PubChem BioAssay AID330 (DTP/NCI, 2004).
Several values for one entry are separate records, joined by “and”; a condition that tells them apart may be missing. Identical values can stand only once. Inconclusive results and toxic doses are left out. Rule for the calls: active = survival T/C of 150% or more; inactive = T/C below 125% in these data.

Test system: P388 leukemia ip, CD2F1 mice, survival T/C
Assay: NCI In Vivo Anticancer Drug Screen. Data for tumor model P388 Leukemia (intraperitoneal) in CD2F1 (CDF1) mice
Conditions: endpoint: median survival time, higher = longer survival
Summary of the method: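 Mice carrying the transplanted tumor received test compound or vehicle. Survival was recorded in each group, and the value is the treated-group measurement divided by that of the vehicle-treated control group.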

[1] = dose: 60.0 mg/kg/injection, schedule: Q01DX005 (ip), vehicle: saline with Tween-80
[2] = dose: 120.0 mg/kg/injection, schedule: Q01DX005 (ip), vehicle: saline with Tween-80
[3] = dose: 240.0 mg/kg/injection, schedule: Q01DX005 (ip), vehicle: saline with Tween-80
[4] = dose: 50.0 mg/kg/injection, schedule: Q01DX009 (ip), vehicle: saline with Tween-80
[5] = dose: 100.0 mg/kg/injection, schedule: Q01DX009 (ip), vehicle: saline with Tween-80
[6] = dose: 60.0 mg/kg/injection, schedule: Q01DX005 (ip), vehicle: saline
[7] = dose: 120.0 mg/kg/injection, schedule: Q01DX005 (ip), vehicle: saline
[8] = dose: 240.0 mg/kg/injection, schedule: Q01DX005 (ip), vehicle: saline
[9] = dose: 100.0 mg/kg/injection, schedule: Q01DX001 (ip), vehicle: saline with Tween-80
[10] = dose: 200.0 mg/kg/injection, schedule: Q01DX001 (ip), vehicle: saline with Tween-80
[11] = dose: 50.0 mg/kg/injection, schedule: Q01DX005 (ip), vehicle: saline with Tween-80
[12] = dose: 100.0 mg/kg/injection, schedule: Q01DX005 (ip), vehicle: saline with Tween-80
[13] = dose: 200.0 mg/kg/injection, schedule: Q01DX005 (ip), vehicle: saline with Tween-80
[14] = dose: 50.0 mg/kg/injection, schedule: Q01DX005 (ip), vehicle: Klucel + Tween-80
[15] = dose: 100.0 mg/kg/injection, schedule: Q01DX005 (ip), vehicle: Klucel + Tween-80
[16] = dose: 200.0 mg/kg/injection, schedule: Q01DX005 (ip), vehicle: Klucel + Tween-80
[17] = dose: 50.0 mg/kg/injection, schedule: Q01DX005 (ip), vehicle: Klucel (hydroxypropylcellulose) (HPC)
[18] = dose: 200.0 mg/kg/injection, schedule: Q01DX009 (ip), vehicle: saline with Tween-80

Measured: T/C

CCCCCCC(=O)CC(SCCN)c1ccccc1Cl (stereo unspecified)
inactive: dose: 3.75 mg/kg/injection, schedule: Q01DX005 (ip), vehicle: saline 100 % of control | dose: 7.5 mg/kg/injection, schedule: Q01DX005 (ip), vehicle: saline 96 % of control | dose: 15.0 mg/kg/injection, schedule: Q01DX005 (ip), vehicle: saline 97 % of control | dose: 30.0 mg/kg/injection, schedule: Q01DX005 (ip), vehicle: saline 99 % of control

CC(C)(C)/[N+]([O-])=C/C1(C2(/C=[N+](\[O-])C(C)(C)C)Cc3ccccc3C2=O)Cc2ccccc2C1=O (stereo unspecified)
inactive: [1] 101 % of control | [2] 105 % of control | [3] 103 % of control

CCOC(CBr)(OCC)OCC
inactive: dose: 25.0 mg/kg/injection, schedule: Q01DX009 (ip), vehicle: saline with Tween-80 94 % of control | [4] 113 % of control | [5] 113 % of control

O=[N+]([O-])c1ccc(C2CC(c3ccccc3)=Nc3ccccc3S2)cc1 (stereo unspecified)
inactive: dose: 12.5 mg/kg/injection, schedule: Q01DX009 (ip), vehicle: saline 97 % of control | dose: 25.0 mg/kg/injection, schedule: Q01DX009 (ip), vehicle: saline 92 % of control | dose: 50.0 mg/kg/injection, schedule: Q01DX009 (ip), vehicle: saline 97 % of control

N[C@H]1CCC[C@@H](O)C1O (stereo partly specified)
inactive: [6] 103 % of control | [7] 100 % of control | [8] 109 % of control

COc1ccc(C2=C/C(=C/c3ccc(N(CCC#N)CCC#N)cc3)C(=O)O2)cc1
inactive: [9] 97 % of control | [10] 95 % of control | dose: 400.0 mg/kg/injection, schedule: Q01DX001 (ip), vehicle: saline with Tween-80 92 % of control

CCN(CC)C(=O)c1ccc2c(c1OCOC)CCC2
inactive: [11] 107 % of control | [12] 97 % of control | [13] 92 % of control

O=C(CCN1C(=O)c2ccccc2C1=O)c1cnc(N2C(=O)c3ccccc3C2=O)[nH]1
inactive: dose: 20.0 mg/kg/injection, schedule: Q01DX005 (ip), vehicle: Klucel (hydroxypropylcellulose) (HPC) 98 % of control | dose: 40.0 mg/kg/injection, schedule: Q01DX005 (ip), vehicle: Klucel (hydroxypropylcellulose) (HPC) 97 % of control | dose: 80.0 mg/kg/injection, schedule: Q01DX005 (ip), vehicle: Klucel (hydroxypropylcellulose) (HPC) 91 % of control

CSc1nc(COC(=O)NC(C)C)c(COC(=O)NC(C)C)n1-c1ccccc1
inactive: dose: 12.5 mg/kg/injection, schedule: Q01DX005 (ip), vehicle: Klucel + Tween-80 111 % of control | dose: 25.0 mg/kg/injection, schedule: Q01DX005 (ip), vehicle: Klucel + Tween-80 101 % of control | [14] 95 % of control | [15] 97 % of control | [16] 90 % of control | dose: 400.0 mg/kg/injection, schedule: Q01DX005 (ip), vehicle: Klucel + Tween-80 100 % of control

CC(C)CC([NH-])C(=O)O.CC(C)CC([NH-])C(=O)O.CC(C)CC([NH-])C(=O)O.[Pr+3] (stereo unspecified)
inactive: [17] 107 % of control | dose: 100.0 mg/kg/injection, schedule: Q01DX005 (ip), vehicle: Klucel (hydroxypropylcellulose) (HPC) 102 % of control | dose: 200.0 mg/kg/injection, schedule: Q01DX005 (ip), vehicle: Klucel (hydroxypropylcellulose) (HPC) 98 % of control

Nc1nc(Cl)c2[nH]cnc2n1
inactive: [4] 108 % of control | dose: 50.0 mg/kg/injection, schedule: Q04DX003 (ip), vehicle: saline with Tween-80 95 % of control | [5] 99 % of control | dose: 100.0 mg/kg/injection, schedule: Q04DX003 (ip), vehicle: saline with Tween-80 100 % of control | dose: 200.0 mg/kg/injection, schedule: Q04DX003 (ip), vehicle: saline with Tween-80 100 % of control

CC(C)N(CCO)CC(O)Cn1cnc2c(N)ncnc21 (stereo unspecified) (tested in a mixture with another compound)
inactive: [6] 97 % of control | [7] 94 % of control | [8] 93 % of control

CC(Cl)C(=O)c1ccc(N)cc1 (stereo unspecified)
inactive: dose: 50.0 mg/kg/injection, schedule: Q01DX009 (ip), vehicle: Klucel (hydroxypropylcellulose) (HPC) 99 % of control | dose: 100.0 mg/kg/injection, schedule: Q01DX009 (ip), vehicle: Klucel (hydroxypropylcellulose) (HPC) 99 % of control | dose: 200.0 mg/kg/injection, schedule: Q01DX009 (ip), vehicle: Klucel (hydroxypropylcellulose) (HPC) 99 % of control

COC(=O)c1ccc(C)[n+](C2OC(COC(=O)c3ccccc3)C(OC(=O)c3ccccc3)C2OC(=O)c2ccccc2)c1 (stereo unspecified)
inactive: dose: 50.0 mg/kg/injection, schedule: Q01DX005 (ip), vehicle: saline + Tween-80 + alcohol 100 % of control | dose: 100.0 mg/kg/injection, schedule: Q01DX005 (ip), vehicle: saline + Tween-80 + alcohol 100 % of control | dose: 200.0 mg/kg/injection, schedule: Q01DX005 (ip), vehicle: saline + Tween-80 + alcohol 98 % of control

c1ccc2cc3cc(N=Nc4ccc5cc6ccccc6cc5c4)ccc3cc2c1
inactive: dose: 100.0 mg/kg/injection, schedule: Q04DX002 (ip), vehicle: saline with Tween-80 108 % of control | dose: 200.0 mg/kg/injection, schedule: Q04DX002 (ip), vehicle: saline with Tween-80 104 % of control | dose: 400.0 mg/kg/injection, schedule: Q04DX002 (ip), vehicle: saline with Tween-80 106 % of control

O=C1OCC/C1=C1/NCCNC1=O
inactive: [4] 91 % of control | [5] 116 % of control | [18] 109 % of control

CN1CCN(C2=NS(=O)(=O)c3cc(Cl)ccc3N2)CC1
inactive: [4] 104 % of control | [5] 104 % of control | [18] 91 % of control

COc1cc(OC)c(C2CC(C)(N3CCCC3)Oc3cc4c(cc32)OCO4)c(OC)c1 (stereo unspecified)
inactive: [1] 94 % of control | [2] 91 % of control | [3] 87 % of control

COc1ccc(-n2c(N)c(C#N)c3c(c2=S)CCC3)cc1
inactive: [14] 106 % of control | [15] 99 % of control | [16] 92 % of control

CC1(C)NC(=O)NC(=O)C1Br (stereo unspecified)
inactive: [11] 99 % of control | [12] 102 % of control | [13] 103 % of control

Cc1cccc(-n2c(-c3ccc([N+](=O)[O-])cc3)csc2=NC(=O)c2cccc([N+](=O)[O-])c2)c1C
inactive: [4] 91 % of control | [5] 87 % of control | [18] 87 % of control

c1cnc2ccc3ncccc3c2c1
inactive: dose: 12.5 mg/kg/injection, schedule: Q01DX005 (ip), vehicle: Klucel (hydroxypropylcellulose) (HPC) 99 % of control | dose: 25.0 mg/kg/injection, schedule: Q01DX005 (ip), vehicle: Klucel (hydroxypropylcellulose) (HPC) 96 % of control | [17] 100 % of control and 97 % of control

NC(N)=NS(=O)(=O)c1ccc(N=NC2C(=O)N(c3ccc(Cl)cc3)C(=S)N(c3ccc(Cl)cc3)C2=O)cc1
inactive: dose: 25.0 mg/kg/injection, schedule: Q01DX005 (ip), vehicle: saline 103 % of control | dose: 50.0 mg/kg/injection, schedule: Q01DX005 (ip), vehicle: saline 106 % of control and 117 % of control | dose: 100.0 mg/kg/injection, schedule: Q01DX005 (ip), vehicle: saline 104 % of control and 124 % of control | dose: 200.0 mg/kg/injection, schedule: Q01DX005 (ip), vehicle: saline 108 % of control

O=C(Nc1ccc([N+](=O)[O-])cc1C(Sc1ccccc1)c1ccccc1)c1ccc([N+](=O)[O-])cc1 (stereo unspecified)
inactive: [9] 94 % of control | [10] 87 % of control

COc1cc2c(cc1OC)C(C#N)(Cc1cccc3ccccc13)N(C(=O)c1ccccc1)C=C2 (stereo unspecified)
inactive: [1] 99 % of control | [2] 101 % of control | [3] 99 % of control
